Test [1] concerns SARS CoV-2 D614G Spike pseudovirus. It is filed as cell-based.
For a further test, the target named is SARS-CoV-2 spike HPM7 (Severe acute respiratory syndrome coronavirus 2, UniProt P0DTC2, A892P/A899P/A942P/F817P/K986P/R682G/R683S/R685S/T883C/V705C/V987P).

Take `O[C@@H](COc1cccc(OC[C@H](O)CN2CCCCC2)c1)CN1CCCCC1` [(R,R)-VE607, reference compound]: the IC50 in test [1] was found to be 660 nM.

With `CN(C)C[C@@H](O)COc1cc(Br)cc(OC[C@H](O)CN(C)C)c1` [Compound 27], at SARS-CoV-2 spike HPM7, the “Particles in closed conformation (3 RBD down)” value is on record as 16.9% and the “Particles in open conformation (1 RBD up)” value came to 68.0%. The IC50 in test [1] worked out at 780 nM.

`CN1CCN(C[C@@H](O)COc2cc(Br)cc(OC[C@H](O)CN3CCN(C)CC3)c2)CC1` [Compound 30] gave an IC50 in test [1] of 1310 nM.

Regarding `CCN(C)C[C@@H](O)COc1cc(Br)cc(OC[C@H](O)CN(C)CC)c1` [Compound 33], the IC50 in test [1] stood at 1150 nM.

The values are drawn from PMC12645998, “Optimization of VE607 to generate analogs with improved neutralization activities against SARS-CoV-2 variants” (Journal of Virology, 2025).
